Measurements as given in ChEMBL document CHEMBL1131431, “Enantiospecific semisynthesis of (+)-almuheptolide-A, a novel natural heptolide inhibitor of the mammalian mitochondrial respiratory chain” (J Med Chem, 1998).

Target: Mitochondrial complex I; NADH oxidoreductase (Bos taurus, UniProt P25708+P52505)
Test: Compound was tested for NADH oxidase activity in bovine heart submitochondrial particles
Format: protein-complex assay

Mitochondrial complex I; NADH oxidoreductase, sequence (P25708 21-464 limits assumed, other chains not shown): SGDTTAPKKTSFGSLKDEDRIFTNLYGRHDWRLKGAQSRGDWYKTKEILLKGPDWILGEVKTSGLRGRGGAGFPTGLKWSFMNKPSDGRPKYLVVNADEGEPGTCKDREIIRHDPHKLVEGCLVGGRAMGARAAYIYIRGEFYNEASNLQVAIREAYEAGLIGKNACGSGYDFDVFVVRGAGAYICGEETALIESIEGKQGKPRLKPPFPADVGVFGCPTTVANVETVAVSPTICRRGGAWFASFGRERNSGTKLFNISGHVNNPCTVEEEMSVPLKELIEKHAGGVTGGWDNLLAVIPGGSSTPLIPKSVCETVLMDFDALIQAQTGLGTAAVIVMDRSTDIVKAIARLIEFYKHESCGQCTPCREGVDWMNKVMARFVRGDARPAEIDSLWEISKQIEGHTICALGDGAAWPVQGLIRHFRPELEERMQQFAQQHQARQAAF

Row | SMILES | IC50
1 | CCO[C@H]1[C@@H](O)[C@H](O)[C@@H](c2ccccc2)OC(=O)C[C@H]1OCC | 4.4 µM
2 | CCO[C@H]1[C@@H](OC(C)=O)[C@H](OC(C)=O)[C@@H](c2ccccc2)OC(=O)C[C@H]1OCC | 3.9 µM
